Assay results as given in US20220064214A1, “NOVEL PEPTIDES AND USES THEREOF” (CENNA BIOSCIENCES INC., priority 2019, published 2022).
Values joined by “and” are separate entries in the source; they are usually repeats but may differ in a detail not shown here. Identical values can stand only once. Marks after values point to notes of the source that are not given here. Ends that are not written are not given here.

What was measured:
[1] = Metabolic stability of peptides in fresh human plasma (LC/MS/MS); assay type: in vitro ADME
Procedure: P8, 8M1, and 8M1D were generated according to Example 1 with purities ranging from 98.0% to 99.0%. A primary 1.00 mM stock solution was prepared in either acetonitrile or acetonitrile:water (1:1, v/v) for each peptide. A 0.200 mM working stock was made from the primary stock in acetonitrile:water (1:1, v/v), which was used for the reactions. The primary and working stock solutions were stored at −20° C. when not in use, and they were kept at room temperature for as short a time as possible when in use. Fresh human plasma were maintained by adding sodium heparin as an anticoagulant.
The incubation procedures started when 5.00 μL of 0.2 mM (working stock solutions) of different peptides were added to 0.995 mL of fresh human plasma in a 1.7-mL snap tube. After 3, 8 and 24 hours of incubation, duplicate 50.0 μL aliquots of plasma were removed and placed into extraction tubes containing 150 μL of methanol, which served to quench any reactions, and thus incubations were ended. For each time point, the aliquotes were immediately extracted by vortex mixing and centrifugation. Resulting supernates were stored in High-Performance Liquid Chromatography (HPLC) vials and analyzed by LC/MS/MS after all samples were extracted. Valacyclovir was used as a positive control.
LC/MS/MS analysis of the incubation solutions was conducted by initial separation of the test article peaks using chromatography prior to detection by the mass spectrometer. The LC/MS system was comprised of a HPLC coupled with a TQS-Micro or Quattro Premier (Waters, Milford, Mass.). The mobile phase was nebulized using heated nitrogen in a Z spray source/interface set to electrospray in positive ionization mode for the peptides. The ionized peptides were detected using Tandem Quadropole Mass Spectrometry (MS/MS). The data was acquired using MassLynx (Waters, Milford, Mass.).
HPLC for the peptides and Valacyclovir control were performed with no guard columns, with a flow rate at 0.3 mL/min, with column temperature at 40° C., and autosampler temperature at 10° C. The column for peptides was MacMod ACE 2 Excel C18PFP, 100×2.1-mm, 2.0 μm, and the column for the control was Waters Atlantis T3, 150×2.1-mm, 5.0 μm. The injection loop and volumn for peptides were 50.0 μL and 20.0 μL respectively, and the ones for controls were 20.0 μL and 2.00 μL. For the Mass Spectrometer for the peptides and the Valacyclovir control, the source temperature was set to be 150° C., desolvation temperature was set to be 350° C., and polarity was set to be positive mode of electrospray ionization. Other parameters in HPLC and Mass Spectrometer are shown in Table 2.1, Table 2.2 and Table 3 below.

[2] = Pharmacokinetics study in rats, plasma; assay type: in vivo; settings: rat; for plasma concentration: individual rats
Procedure: (§1) An in-vivo study was carried out in rats to determine the pharmacokinetics (PK) of peptides P8, 8M1D and 8M2D in plasma and CSF. Each peptide was assessed through two dosage routes, intravenous (IV) and subcutaneous (SC). Three rats were assigned to each dose group with each peptide. Total of twelve rats per peptide were used.
(§2) Blood was collected through jugular vein cannulas, and the samples were collected into tubes with K2EDTA. After centrifuging at a temperature of 2 to 8° C. at 4,000×g for 5 minutes, the resulting plasma was split into equal aliquots, frozen, and stored at −60 to −80° C. One aliquot was for PK analysis and the other was for Aβ analysis (see Example 4).

[3] = Pharmacokinetics study in rats, CSF; assay type: in vivo; design: CSF concentration, Mean IV / CSF concentration, Mean SC: unit not given here; settings: rat; for CSF concentration, Mean IV: 10 mg/kg IV; for CSF concentration, Mean SC: 10 mg/kg SC
Procedure: as §1
CSF collection was performed by first anesthetizing animals at specified time points (see Table 5) with a mixture of 80 mg/kg ketamine and 8 mg/kg xylazine. The depth of anesthesia was monitored by toe pinches. CSF was collected via the cisterna magna (˜0.05 mL), and it was split into equal aliquots, frozen, and stored at −60 to −80° C.

Aβ40 = test: Efficacy in reducing Aβ40 in rat plasma (ELISA); assay type: in vivo; settings: 10 mg/kg SC; for reduction in Aβ40: rat plasma; for Percent Decrease in Aβ 40 in Rat Plasma: mean of 3 rats, negative = decrease
Procedure: as §2
Rats (n=3 per peptide) were administered with P8, 8M1D, or 8M2D (10 mg/kg) subcutaneously, and plasma were collected at 0, 6, 12, and 24 h after dosing and Aβ40 analysis was carried out by ELISA (Invitrogen).

[4] = Delivery to brain in transgenic mice (brain concentrations); assay type: in vivo; settings: SC administration
Procedure: Critical to the development of any therapeutic for diseases like AD is the requirement that it can be delivered to the brain. Delivery to brain and efficacy of P8 and 8M2D in reducing Aß was analyzed in the transgenic mice described in Section 6.3 above. […]

Aβ = test: Reduction of Aβ in retinal cells differentiated from iPSC derived from Alzheimer's disease patients; assay type: cell-based
Source text: The accumulation of Aβ in the retina was studied in this example. Retinal cells were differentiated from induced pluripotent stem (iPSC) cells derived from Alzheimer's disease patients.

Substance: DEEEDEEL-OH [P8, DEEEDEEL, reference compound]
- stability in fresh human plasma (in words) [1]: relatively stable
- % Remaining ([1]; fresh human plasma, 0 h incubation): 100%
- remaining at 3 h, 1 µM ([1]; fresh human plasma, 3 h incubation): 115%
- remaining at 8 h, 1 µM ([1]; fresh human plasma, 8 h incubation): 99.7%
- remaining at 24 h, 1 µM ([1]; fresh human plasma, 24 h incubation): 72%
- time after dosing at which detectable in plasma ([2]; 10 mg/kg IV and SC): ≤ 2 h
- plasma concentration ([2]; 10 mg/kg IV, 0 hr (pre-dose)): BQL
- plasma concentration ([2]; 10 mg/kg IV, 0.167 hr, 10 mg/kg): 9,770 and 12,800 ^a and 11,800 ^a
- plasma concentration ([2]; 10 mg/kg IV, 0.5 hr, 10 mg/kg, in ng/mL (unit assumed)): 2,340 and 2,080 and 2,710
- plasma concentration ([2]; 10 mg/kg IV, 1 hr, 10 mg/kg, in ng/mL (unit assumed)): 257 and 219 and 189
- plasma concentration ([2]; 10 mg/kg IV, 2 hr, 10 mg/kg, in ng/mL (unit assumed)): 26.3 and 22.7 and 18.9
- plasma concentration ([2]; 10 mg/kg IV, 4 hr, 10 mg/kg): 3.23 ^b and 3.18 ^b and 2.89 ^b
- plasma concentration ([2]; 10 mg/kg IV, 6 hr, 10 mg/kg): 1.07 ^b and 0.794 ^b
- plasma concentration ([2]; 10 mg/kg IV, 8 hr): BQL
- plasma concentration ([2]; 10 mg/kg IV, 12 hr): BQL
- plasma concentration ([2]; 10 mg/kg IV, 24 hr): BQL
- plasma concentration ([2]; 10 mg/kg SC, 0 hr (pre-dose)): BQL
- plasma concentration ([2]; 10 mg/kg SC, 0.167 hr, 10 mg/kg): 5,610 and 14,400 ^a and 11,900 ^a
- plasma concentration ([2]; 10 mg/kg SC, 0.5 hr, 10 mg/kg, in ng/mL (unit assumed)): 3,030 and 7,010 and 7,250
- plasma concentration ([2]; 10 mg/kg SC, 1 hr, 10 mg/kg, in ng/mL (unit assumed)): 670 and 1,300 and 1,970
- plasma concentration ([2]; 10 mg/kg SC, 2 hr, 10 mg/kg, in ng/mL (unit assumed)): 105 and 191 and 245
- plasma concentration ([2]; 10 mg/kg SC, 4 hr, 10 mg/kg): 5.44 ^b and 9.41 ^b and 20.7
- plasma concentration ([2]; 10 mg/kg SC, 6 hr, 10 mg/kg): 1.18 ^b and 4.35 ^b and 9.33 ^b
- plasma concentration ([2]; 10 mg/kg SC, 8 hr, 10 mg/kg): BQL and 1.32 ^b and 1.51 ^b
- plasma concentration ([2]; 10 mg/kg SC, 12 hr, 10 mg/kg): BQL (2×) and 0.900 ^b
- plasma concentration ([2]; 10 mg/kg SC, 24 hr): BQL
- time after dosing at which detectable in CSF ([3]; 10 mg/kg IV and SC): ≤ 2 h
- CSF concentration, Mean IV ([3]; 0 hr): 0
- CSF concentration, Mean IV ([3]; 0.5 hr): 42.4
- CSF concentration, Mean IV ([3]; 1 hr): 14.2
- CSF concentration, Mean IV ([3]; 2 hr): 4.89
- CSF concentration, Mean IV ([3]; 4 hr): 0
- CSF concentration, Mean IV ([3]; 8 hr): 0
- CSF concentration, Mean IV ([3]; 12 hr): 0
- CSF concentration, Mean IV ([3]; 24 hr): 0
- CSF concentration, Mean SC ([3]; 0 hr): 0
- CSF concentration, Mean SC ([3]; 0.5 hr): 79.4
- CSF concentration, Mean SC ([3]; 1 hr): 19.3
- CSF concentration, Mean SC ([3]; 2 hr): 23.3
- CSF concentration, Mean SC ([3]; 4 hr): 0
- CSF concentration, Mean SC ([3]; 8 hr): 0
- CSF concentration, Mean SC ([3]; 12 hr): 0
- CSF concentration, Mean SC ([3]; 24 hr): 0
- reduction in Aβ40 (Aβ40; 12 hr post dosing): about 22%
- reduction in Aβ40 (Aβ40; 24 h post dosing): about 13%
- Percent Decrease in Aβ 40 in Rat Plasma (Aβ40; 0 h): 0.00%
- Percent Decrease in Aβ 40 in Rat Plasma (Aβ40; 6 h): −18.13%
- Percent Decrease in Aβ 40 in Rat Plasma (Aβ40; 12 h): −22.70%
- Percent Decrease in Aβ 40 in Rat Plasma (Aβ40; 24 h): −13.22%
- delivery to the APPTg mouse brain (in words) [4]: in sufficient amounts to reduce Aß in the brain
- production of Aβ in retinal cells in the presence of the peptide (in words) (Aβ): reduced
